In PubChem BioAssay AID1259411 (Chemical Carcinogenesis Research Information System (CCRIS), 2018):
Active and inactive are the calls of the source. The rule behind the calls is not given here.

System: rodent carcinogenicity bioassays, tumor incidence
Assay: CCRIS carcinogenicity studies
Procedure, shortened: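 Archive of carcinogenicity, mutagenicity, tumor promotion and tumor inhibition results drawn from journals, NCI reports and other sources, expert-reviewed; covers 1985-2011 and is no longer updated.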

Measured: carcinogen call

COP(=S)(OC)Oc1ccc(SC)c(C)c1
inactive: Species: MOUSE, Strain/Sex: B6C3F1/FEMALE, Route: ORAL, Dose: 0, 10, 20 PPM IN DIET, Dose: 0, 10, 20 PPM IN DIET inactive; negative | Species: Mouse, Strain/Sex: B6C3F1/Female (60/group), Route: Oral, Dose: 0, 0.1, 1, 5, 25 ppm in diet for up to 2 yr, study duration 2 yr, Dose: 0, 0.1, 1, 5, 25 ppm in diet for up to 2 yr, study duration 2 yr inactive; negative | Species: Mouse, Strain/Sex: B6C3F1/Male (60/group), Route: Oral, Dose: 0, 0.1, 1, 5, 25 ppm in diet for up to 2 yr, study duration 2 yr, Dose: 0, 0.1, 1, 5, 25 ppm in diet for up to 2 yr, study duration 2 yr inactive; negative | Species: RAT, Strain/Sex: F344/MALE, Route: ORAL, Dose: 0, 10, 20 PPM IN DIET, Dose: 0, 10, 20 PPM IN DIET inactive; negative | Species: Rat, Strain/Sex: Fischer 344/Female (50/Group), Route: Oral, Dose: 0 (corn oil), 5, 20, 100 ppm in diet for 2 yr, study duration 2 yr, Dose: 0 (corn oil), 5, 20, 100 ppm in diet for 2 yr, study duration 2 yr inactive; negative | Species: Rat, Strain/Sex: Fischer 344/Male (50/Group), Route: Oral, Dose: 0 (corn oil), 5, 20, 100 ppm in diet for 2 yr, study duration 2 yr, Dose: 0 (corn oil), 5, 20, 100 ppm in diet for 2 yr, study duration 2 yr inactive; negative

CC/C(=C(/CC)c1ccc(O)cc1)c1ccc(O)cc1
active: Species: HAMSTER, Route: PRE-NATAL EXPOSURE, Tumor Site: Type of Lesion: UTERUS, ACCESSORY SEX ORGANS (M), VAGINA, CERVIX, Tumor Site: Type of Lesion: UTERUS, ACCESSORY SEX ORGANS (M), VAGINA, CERVIX active; positive | Species: HAMSTER, Route: SUBCUTANEOUS IMPLANT, Tumor Site: Type of Lesion: KIDNEY active; positive | Species: HAMSTER, Route: SUBCUTANEOUS, Tumor Site: Type of Lesion: KIDNEY active; positive | Species: HAMSTER, Strain/Sex: SYRIAN/MALE, Route: SUBCUTANEOUS IMPLANT, Dose: 0, 20 MG IN PELLETS IMPLANTED EVERY 2.5 MO FOR 9 MO (STUDY DURATION: 9 MO), Tumor Site: Type of Lesion: KIDNEY: TUMOR active; positive | Species: HUMAN, Route: DERMAL, Tumor Site: Type of Lesion: CERVIX OR VAGINA active; positive | Species: MONKEY, Route: SUBCUTANEOUS, Tumor Site: Type of Lesion: UTERUS active; positive | Species: MOUSE, Route: NEO-NATAL EXPOSURE, Tumor Site: Type of Lesion: CERVIX, VAGINA active; positive | Species: MOUSE, Route: ORAL, Tumor Site: Type of Lesion: MAMMARY GLAND, CERVIX, VAGINA, Tumor Site: Type of Lesion: MAMMARY GLAND, CERVIX, VAGINA active; positive | Species: MOUSE, Route: PRE-NATAL EXPOSURE, Tumor Site: Type of Lesion: CERVIX, VAGINA, OVARIES, Tumor Site: Type of Lesion: CERVIX, VAGINA, OVARIES active; positive | Species: MOUSE, Route: SUBCUTANEOUS IMPLANT, Tumor Site: Type of Lesion: TESTES, MAMMARY GLAND, LYMPHATIC SYSTEM, Tumor Site: Type of Lesion: TESTES, MAMMARY GLAND, LYMPHATIC SYSTEM active; positive | Species: MOUSE, Route: SUBCUTANEOUS, Tumor Site: Type of Lesion: MAMMARY GLAND, GENITAL TRACT, OVARIES, Tumor Site: Type of Lesion: MAMMARY GLAND, GENITAL TRACT, OVARIES active; positive | Species: MOUSE, Strain/Sex: C3H/FEMALE, Route: ORAL, Dose: 0, 2.5, 5, 10, 20, 40, 80, 160, 320, 640 PPB IN DIET (STUDY DURATION: 455 D), Dose: 0, 2.5, 5, 10, 20, 40, 80, 160, 320, 640 PPB IN DIET (STUDY DURATION: 455 D), Tumor Site: Type of Lesion: MAMMARY GLAND: ADENOCARCINOMA active; positive | Species: MOUSE, Strain/Sex: C57BL/6/XPA/P53/MALE,FEMALE (TRANSGENIC), Route: DIET, Dose: 0, 1500 PPB IN DIET FOR 39 WKS (STUDY DURATION: 39 WKS), Tumor Site: Type of Lesion: BONE: OSTEOSARCOMA (MALES ONLY), TESTICULAR INTERSTITIAL CELL ADENOMA (BENIGN), MALES active; positive in males only | Species: MOUSE, Strain/Sex: CD-1/FEMALE, Route: INTRAPERITONEAL, Dose: 0, 1 UG/G BW ADMINISTERED TO PREGNANT MICE AT 16 D AND 16 HR, 17 D, OR 17 D 16 HR POST CONCEPTION OR 2 UG/G BW AT 17 D 1, Tumor Site: Type of Lesion: PITUITARY GLAND: TUMOR active; positive | Species: RAT, Route: NEO-NATAL EXPOSURE, Tumor Site: Type of Lesion: ACCESSORY SEX ORGANS (M) active; positive | Species: RAT, Route: ORAL, Tumor Site: Type of Lesion: MAMMARY GLAND, PITUITARY GLAND active; positive | Species: RAT, Route: SUBCUTANEOUS IMPLANT, Tumor Site: Type of Lesion: MAMMARY GLAND, URINARY BLADDER active; positive | Species: RAT, Route: SUBCUTANEOUS, Tumor Site: Type of Lesion: MAMMARY GLAND, PITUITARY GLAND active; positive | Species: RAT, Strain/Sex: ACI/FEMALE, Route: SUBCUTANEOUS IMPLANT, Dose: 0, 1.25 MG/100 G ONCE IN A 20 MG PELLET AT AGES 75, 127 AND 177 D (STUDY DURATION: 347-365 D), Tumor Site: Type of Lesion: MAMMARY GLAND: ADENOCARCINOMA active; positive | Species: RAT, Strain/Sex: WISTAR/FEMALE, Route: SUBCUTANEOUS, Dose: 0, 0.1, 0.5 MG/KG TO MOTHERS ON D 18, 19 AND 20 OF GESTATION (STUDY DURATION: 2 YR), Dose: 0, 0.1, 0.5 MG/KG TO MOTHERS ON D 18, 19 AND 20 OF GESTATION (STUDY DURATION: 2 YR), Tumor Site: Type of Lesion: VAGINA: TUMOR active; positive | Species: RAT, Strain/Sex: WISTAR/FEMALE, Route: SUBCUTANEOUS, Dose: 0, 25, 50 MG/KG TO MOTHERS ON D 19 AND 20 OF GESTATION (STUDY DURATION: 2 YR), Dose: 0, 25, 50 MG/KG TO MOTHERS ON D 19 AND 20 OF GESTATION (STUDY DURATION: 2 YR), Tumor Site: Type of Lesion: VAGINA: TUMOR active; positive
inactive: Species: MOUSE, Strain/Sex: C57BL/6/MALE,FEMALE (WILD TYPE), Route: DIET, Dose: 0, 1500 PPB IN DIET FOR 39 WKS (STUDY DURATION: 39 WKS) inactive; negative
significant in males at 1500 ppb only: Species: MOUSE, Strain/Sex: C57BL/6XPA/MALE,FEMALE (TRANSGENIC), Route: DIET, Dose: 0, 100, 300, 1500 PPB IN DIET FOR 39 WKS (STUDY DURATION: 39 WKS), Dose: 0, 100, 300, 1500 PPB IN DIET FOR 39 WKS (STUDY DURATION: 39 WKS), Tumor Site: Type of Lesion: PITUITARY: ADENOMA (BENIGN)

CCCCCCCCCN(C)N=O
active: Species: RAT, Strain/Sex: F344/MALE, Route: GAVAGE, Dose: 0, 100 MG/ML IN CORN OIL 2/WK FOR 30 WK, STUDY DURATION: 60 WK, Dose: 0, 100 MG/ML IN CORN OIL 2/WK FOR 30 WK, STUDY DURATION: 60 WK, Tumor Site: Type of Lesion: LUNG: ADENOCARCINOMA, NASAL CAVITY: CARCINOMA, PAPILLOMA, LIVER: CHOLANGIOCARCINOMA, HEPATOCELLULAR TUMOR, Tumor Site: Type of Lesion: LUNG: ADENOCARCINOMA, NASAL CAVITY: CARCINOMA, PAPILLOMA, LIVER: CHOLANGIOCARCINOMA, HEPATOCELLULAR TUMOR active; positive

CCCCCCCCCCCCN(C)N=O
active: Species: RAT, Strain/Sex: F344/MALE, Route: GAVAGE, Dose: 60 MG/ML IN CORN OIL 2/WK FOR 30 WK, STUDY DURATION: 112 WK, Tumor Site: Type of Lesion: LUNG: ADENOCARCINOMA, FORESTOMACH: CARCINOMA, BLADDER, Tumor Site: Type of Lesion: LUNG: ADENOCARCINOMA, FORESTOMACH: CARCINOMA, BLADDER active; positive

O=[N+]([O-])c1ccc2ccc3cccc4c3c2c1C1OC41 (centres undefined)
inactive: Species: MOUSE, Strain/Sex: B6C3F1/FEMALE, Route: INTRAPERITONEAL, Dose: 0, 7 NMOL (TOTAL DOSE), 1/7, 2/7 AND 4/7 OF THE TOTAL DOSE ADMINISTERED WITHIN 24 HR OF BIRTH AND AT 8 AND 15 D OF AGE inactive; negative | Species: MOUSE, Strain/Sex: B6C3F1/MALE, Route: INTRAPERITONEAL, Dose: 0, 7 NMOL (TOTAL DOSE), 1/7, 2/7 AND 4/7 OF THE TOTAL DOSE ADMINISTERED WITHIN 24 HR OF BIRTH AND AT 8 AND 15 D OF AGE inactive; negative

CC1=CC(C)(C)N(N=O)c2ccccc21
active: Species: RAT, Strain/Sex: CB/MALE, Route: INTRAPERITONEAL, Dose: 0, 25 MG IN POLYETHYLENE GLYCOL 400 1/WK FOR 6 MO FOR A TOTAL DOSE OF 0, 650 MG (STUDY DURATION: 24 MO), Dose: 0, 25 MG IN POLYETHYLENE GLYCOL 400 1/WK FOR 6 MO FOR A TOTAL DOSE OF 0, 650 MG (STUDY DURATION: 24 MO), Tumor Site: Type of Lesion: PERITONEUM: SARCOMA active; positive
